Active and inactive are the calls of the source. No cut-off for these calls is given here.
What was measured:
T-cell [1] = assay: Immunostimulatory activity in human Gamma delta T cells expressing Vgamma2Vdelta2T assessed as proliferation up to 300 uM after 16 to 24 hrs by [3H]thymidine incorporation assay; type: functional, cell-based
[2] = Immunostimulatory activity in human Gamma delta T cells expressing Vgamma2Vdelta2T assessed as proliferation after 16 to 24 hrs by [3H]thymidine incorporation assay; type: functional, cell-based; details: T-cell
T-cell [3] = assay: Ratio of compound EC50 to isopentenyl pyrophosphate EC50 for immunostimulatory activity in human Gamma delta T cells expressing Vgamma2Vdelta2T; type: functional

| SMILES | Activity (T-cell [1]) | EC50 [2] [nM] | Ratio EC50 (T-cell [3]) |
| --- | --- | --- | --- |
| C/C(=C\CO[C@@H]1O[C@H](CO)[C@@H](O)[C@H](O)[C@H]1O)CO | inactive | – | – |
| C/C(=C\COP(=O)(O)OP(=O)(O)O)COC(=O)c1cccc(C(=O)c2ccccc2)c1 | – | 0.08 | – |
| C/C(=C\COP(=O)(O)OP(=O)(O)O)COCc1cccc(C(=O)c2ccccc2)c1 | – | 1.8 | – |
| C/C(=C\COP(=O)(O)OP(=O)(O)O)COC(=O)c1ccc(C(=O)c2ccccc2)cc1 | – | 0.08 | – |
| C/C(=C\COP(=O)(O)OP(=O)(O)O)COCc1ccc(C(=O)c2ccccc2)cc1 | – | 1.8 | – |
| C/C(=C\CO)CO[C@@H]1O[C@H](CO)[C@@H](O)[C@H](O)[C@H]1O | inactive | – | – |
| CC(=O)OC[C@H]1O[C@@H](OC/C(C)=C/COP(=O)(O)OP(=O)(O)O)[C@H](OC(C)=O)[C@@H](OC(C)=O)[C@@H]1OC(C)=O | – | 360 | – |
| C/C(=C\COP(=O)(O)OP(=O)(O)O)CO[C@@H]1O[C@H](CO)[C@@H](O)[C@H](O)[C@H]1O | – | 78 | 12 |
